Results from the OPERA property sets (Mansouri et al. 2018).

| SMILES | logP |
| --- | --- |
| c1ccn2cccc2c1 | 2.49 |
| CC(=C(C#N)C#N)c1ccccc1 | 2.1 |
| CCC(N)Cc1ccccc1 (configuration not stated) | 2.28 |
| CNc1ccc([N+](=O)[O-])cc1 | 2.04 |
| Cc1[nH]ccc(=O)c1O | -0.49 |
| c1ccc2c(c1)-c1cccc3cccc-2c13 | 5.16 |
| c1ccc2c(c1)cnn2C12CC3CC(CC(C3)C1)C2 | 4.33 |
| Cc1cc2ccccc2cc1C | 4.4 |
| CCC(C)N(C(=O)SCc1ccccc1)C(C)CC (configuration not stated) | 4.4 |
| CC(C)(N)Cc1ccccc1 | 1.9 |
| NC(=O)C(F)(F)F | 0.12 |
| CC=C(C)C1(C)CC(=O)C(C(CCC)=NOCC)C(=O)O1 (configuration not stated) | 3.4 |
| CCCC(=NOCC)C1C(=O)CC2(CCCCC2C)OC1=O (configuration not stated) | 3.9 |
| CC(=O)COc1ccccc1 | 1.04 |
| O=C(O)Cc1ccc(I)cc1 | 2.64 |
| NNC(=O)c1ccc(Cl)cc1 | 1.18 |
| NS(=O)(=O)c1cc2c(cc1C(F)(F)F)NCNS2(=O)=O | 0.36 |
| CCCNC(=O)c1[nH]nc(C)c1[N+](=O)[O-] | 0.65 |
| O=C(NP(=O)(N1CC1)N1CC1)c1ccc(Br)cc1 | 1.63 |
| CCOCCO | -0.32 |
| ClCc1ccc(Cl)cc1Cl | 3.82 |
| CC(C)(O)C(C(=O)O)c1ccc(-c2ccccc2)cc1 (configuration not stated) | 3.25 |

| SMILES | logP |
| --- | --- |
| O=C1C=CC(=O)C(Cl)=C1 | 0.84 |
| CC(C)(C)NC(=O)NO | 0.5 |
| NC(=O)N(CCCCCCN(N=O)C(N)=O)N=O | 0.58 |
| CCCCNC(N)=O | 0.41 |
| Cc1ccc(N)nc1 | 1.02 |
| O=C(O)C(c1ccc(-c2ccccc2)cc1)C(O)c1cccc(F)c1 (configuration not stated) | 3.31 |
| CC(=O)c1cccc(NC(=O)N(C)C)c1 | 0.95 |
| BrC1CCCCC1 | 3.2 |
| O=[N+]([O-])c1ccc2nc(C(F)(F)F)[nH]c2c1 | 2.68 |
| O=C(O)CONC(=O)c1ccccc1 | -0.27 |
| Nc1nc(N)nc(-c2ccc(F)cc2)n1 | 1.61 |
| OCCCCc1ccccn1 | 0.86 |
| SC1=NCCCN1 | -0.68 |
| O=C(O)CCCc1ccccc1 | 2.42 |
| N#CC(Cl)(Cl)Cl | 2.09 |
| CC(=O)Oc1ccc([N+](=O)[O-])cc1 | 1.5 |
| O=C1CC(Sc2ccccn2)N1 (configuration not stated) | 0.61 |
| CSc1cccc(-c2nc(N)nc(N)n2)c1 | 2.16 |
| CC(C)(C)[N+](=O)[O-] | 1.17 |
| O=C1CCCO1 | -0.64 |
| c1cc2ccsc2cn1 | 1.74 |
| Cc1ccno1 | 0.45 |

| SMILES | logP |
| --- | --- |
| NC(Cc1c[nH]c2cccc(F)c12)C(=O)O (configuration not stated) | -1.07 |
| COc1cnnc2ccccc12 | 1.41 |
| CCCNC(=O)c1ccc(S(N)(=O)=O)cc1 | 0.51 |
| CCC1(c2ccccc2)C(=O)NCNC1=O | 0.91 |
| O=C(Nc1ccc([N+](=O)[O-])cc1)c1cccnc1 | 1.82 |
| Fc1cccc(CCl)c1 | 2.77 |
| Cc1ccc(C)o1 | 2.24 |
| O=Nc1ccccc1 | 2.01 |
| O=C1CC(c2ccc(C(F)(F)F)cc2)Cc2c1c(=O)c1cc(Cl)ccc1n2O (configuration not stated) | 3.46 |
| CC(=O)c1cccc(C(=O)O)c1 | 1.56 |
| Oc1c(Cl)cccc1Cl | 2.75 |
| Nc1ccc(S(=O)(=O)Nc2ccc(S(N)(=O)=O)cc2)cc1 | 0.35 |
| CN(C)c1cccc(O)c1 | 1.56 |
| Cc1cccc2cccc(C)c12 | 4.26 |
| O=Cc1ccccc1Cl | 2.33 |
| C=COCC | 1.04 |
| CCCCC1CC(C(=O)NC(C(C)Cl)C2OC(SC)C(O)C(O)C2O)N(CC)C1 (configuration not stated) | 3.21 |
| CCCSP(=O)(OCC)Oc1ccc(Br)cc1Cl (configuration not stated) | 4.68 |
| CCCC[n+]1ccccc1.[Br-] | -2.69 |
| CCCN1CCCN(CCC)C1=S | 2.83 |
| NC(=O)Cc1ccncc1 | -0.65 |
| COc1cc(S(C)=O)ccc1-c1cn2ccnc(OC)c2n1 (configuration not stated) | 1.49 |

| SMILES | logP |
| --- | --- |
| CNC(=O)Oc1cccc(N(C)C)c1 | 1.43 |
| CCc1ccccc1OC(=O)NC | 1.93 |
| c1ccc2oncc2c1 | 1.63 |
| CCCCCCCCOC(=O)n1cnc(CC(NC(=O)C2CCC(=O)N2)C(=O)N2CCCC2C(N)=O)c1 (configuration not stated) | 1.82 |
| O=[N+]([O-])c1cc[n+]([O-])c2ccccc12 | 1.09 |
| Cc1cc(C(=O)NN)ccn1 | -0.37 |
| c1cn[nH]c1 | 0.26 |
| CNc1nc(C)nc2c1ncn2[C@@H]1O[C@H](CO)C[C@@H]1F | 0.64 |
| OC(O)C(Cl)(Cl)Cl | 0.99 |
| O=C1CN=C(c2ccccc2C(F)(F)F)c2cc([N+](=O)[O-])ccc2N1 | 2.51 |
| Nc1ccc(S(=O)(=O)Nc2ccnn2-c2ccccc2)cc1 | 1.52 |
| CC(=O)Oc1cccc2cccnc12 | 2.03 |
| O=Cc1cccnc1 | 0.29 |
| Fc1cccc(C2CNCCO2)c1 (configuration not stated) | 1.42 |
| N#CCc1ccsc1 | 1.26 |
| C=CCCCCC | 3.99 |
| CN(C)C(=O)Nc1ccc(Cl)cc1 | 1.94 |
| CC(C)COC(N)=O | 0.65 |
| Cc1cc(Cl)ccc1NC1=NCCN1 | 1.8 |
| CCCCNc1nc(NCC)nc(SC(F)F)n1 | 4.51 |
| COc1c(O)cc(Cl)c(Cl)c1Cl | 3.77 |
